Experiment [1] concerns the target BTK (Homo sapiens (Human), UniProt Q06187). Briefly: BTK enzyme experiment (ADP-Glo kinase assay). Particulars: 10 nM BTK, ATP 125 μM, Poly(Glu4, Tyr1), 90 minutes at 20° C.; read-out: BTK(WT) IC50. Type of experiment: biochemical. Summed up:
(§1)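 Wild-type or C481S BTK, added as 2× solution at 10 nM, preincubated 10 min with 3-fold compound dilutions in 50 mM HEPES pH 7.5, 10 mM MgCl2, 2 mM DTT, 0.0015% Brij-35. ADP-Glo luminescence norm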

In experiment [2] the target is BTK (C481S) (Homo sapiens (Human), UniProt Q06187, C481S). Briefly: BTK C481S enzyme experiment (ADP-Glo kinase assay). The format is biochemical. The conditions noted are these: 10 nM BTK C481S, ATP 125 μM, Poly(Glu4, Tyr1), 90 minutes at 20° C. The gist of the method: as §1
Sequence of BTK (C481S) (Q06187 whole entry C481S): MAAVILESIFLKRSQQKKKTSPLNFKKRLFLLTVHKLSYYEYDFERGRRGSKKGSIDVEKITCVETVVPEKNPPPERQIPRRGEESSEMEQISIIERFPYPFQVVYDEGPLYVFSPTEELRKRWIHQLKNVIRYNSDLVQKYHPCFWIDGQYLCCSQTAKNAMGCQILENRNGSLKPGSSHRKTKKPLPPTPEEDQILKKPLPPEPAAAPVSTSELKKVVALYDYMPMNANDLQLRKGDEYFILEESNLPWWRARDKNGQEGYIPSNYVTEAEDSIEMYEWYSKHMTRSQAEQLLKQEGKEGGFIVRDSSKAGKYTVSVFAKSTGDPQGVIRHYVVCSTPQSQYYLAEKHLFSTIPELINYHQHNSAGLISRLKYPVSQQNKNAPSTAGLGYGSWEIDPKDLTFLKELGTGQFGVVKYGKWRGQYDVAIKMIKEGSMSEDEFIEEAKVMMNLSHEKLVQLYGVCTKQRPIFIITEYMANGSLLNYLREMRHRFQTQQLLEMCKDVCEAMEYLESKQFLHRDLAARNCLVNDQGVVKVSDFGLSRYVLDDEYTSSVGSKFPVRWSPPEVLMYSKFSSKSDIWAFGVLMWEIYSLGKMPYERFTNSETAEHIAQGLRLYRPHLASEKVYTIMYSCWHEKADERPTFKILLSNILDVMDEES
Experiment [3] deals with p-BTK (WT) (Homo sapiens (Human), UniProt Q06187). As to the kind of experiment: p-BTK cell experiment, HEK293 transfected with WT-BTK plasmid (P-BTK Y223 sandwich ELISA). Particulars: HEK293 cells, compound cultured for two hours. Type of experiment: cell-based. As to the method:
(§2) Day 1: HEK293 cells (ADDEXBIO, T0011001) at logarithmic growth phase were taken, digested with enzyme EDTA, collected and counted, and 2E6 cells were inoculated in a 10 cm culture dish and cultured overnight. Day 2: A mixed solution containing 6 μg of WT-BTK/C481S-BTK plasmid and 18 μL of FuGENE HD transfection reagent was prepared by using 1000 μL of Opti-MEM. After standing at room temperature for 10 minutes, the mixed solution was slowly added to the culture dish with a pipettor and cultured overnight. Day 3: The culture dish was taken out, and the cells were digested with enzyme EDTA, collected and counted, and 1E4 cells were inoculated in a 96-well cell culture plate and cultured overnight. A 3.16-fold gradient concentration stock solution of 1000× compound was prepared using DMSO, and placed at room temperature. Day 4: A prepared 1000× compound stock solution was taken, and diluted 200-fold to 5× compound stock solution with culture medium. 5× compound stock solution was added to each cell culture well with a final concentration of 1× compound stock solution and a DMSO content of 0.1%. DMSO was used as an experimental control. After the compound was added and cultured for two hours, the residual culture medium was removed. 100 μL of cell lysis buffer was added to each well, stood on ice for 30 minutes, and ultrasonically lysed with ice water for 5 minutes. After diluting the cell lysate in proportion, 80 μL of the mixture was transfer to an ELISA plate, and 80 μL of cell lysis buffer was added to the blank well. After incubating in an incubator at 37° C. for 2 hours, the plate was taken and the antibody incubation and color development termination operation were completed according to the instructions of Pathscan P-BTK (Y223) Sandwich ELISA Kit (Cell Signaling #23843 CA), and finally the OD value was read. The inhibition rate of the compound (%)=(ODcontrol−ODcompound)/(ODcontrol−ODblank)×100% was calculated. The compound gradient dilution concentration and the corresponding cell proliferation inhibition rate were fit by using Prism 8 four-parameter method, and IC50 value was calculated.
In general terms: In an ELISA, binding on a coated surface is turned into a signal by an enzyme label.

Experiment [4] has as its target p-BTK (C481S) (Homo sapiens (Human), UniProt Q06187, C481S). Briefly: p-BTK cell experiment, HEK293 transfected with C481S-BTK plasmid (P-BTK Y223 sandwich ELISA). The conditions noted are these: HEK293 cells, compound cultured for two hours. The format is cell-based. As to the method:
as §2

In experiment [5] the test system is TMD-8 cells. Briefly: TMD-8 proliferation inhibition experiment. The format is cell-based. The conditions noted are these: human diffuse large B lymphoma cells, three days incubation. The gist of the method:
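Log-phase cells seeded in 384-well plates (600 TMD-8 in RPMI 1640, 2000 OCI-LY10 in IMDM, both 10% FBS), then exposed one day later to 3-fold compound dilutions at 0.25% DMSO for three days. ADP-Glo luminescence read; inhibition versus DMSO and medium-only blank, IC50 by four-parameter fit.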

Structures are written as SMILES.

This note sets out measurements from US20240360154A1, “AROYL SUBSTITUTED TRICYCLIC COMPOUND, PREPARATION METHOD THEREFOR AND USE THEREOF” (GENFLEET THERAPEUTICS (SHANGHAI) INC., priority 2020, published 2024).

Broadly, the IC50 is the point on the concentration scale where inhibition reaches its midpoint.

Sequence of p-BTK (C481S) (Q06187 whole entry C481S): as above
Sequence of p-BTK (WT) (Q06187 whole entry): as the sequence (Q06187 whole entry C481S) above, with S481C counted along it
Sequence of BTK (Q06187 whole entry): as the sequence (Q06187 whole entry C481S) above, with S481C counted along it

`CC(=O)N1CC[C@]2(C1)Nc1c(cnc3[nH]cc(C(=O)c4ccc(Oc5ccccc5)cc4Cl)c13)NC2=O` (single isomer, unassigned) [Z4-1]: the IC50 in experiment [1] stood at 17 nM; in experiment [2], 6.8 nM; in experiment [3], 70.8 nM; in experiment [4], 97.6 nM; in experiment [5] it was 305 nM.

Regarding `C[C@@]1(CO)Nc2c(cnc3[nH]cc(C(=O)c4ccc(Oc5ccccc5)cc4Cl)c23)NC1=O` (single isomer, unassigned) [Z9-2], the IC50 turned out to be 9.5 nM in experiment [1]; 10.8 nM in experiment [2]; 62.6 nM in experiment [3]; 134 nM in experiment [4]; 73.8 nM in experiment [5].

For the compound `O=C(c1ccc(Oc2ccccc2)cc1Cl)c1c[nH]c2ncc3c(c12)N[C@]1(CCCOC1)C(=O)N3` (single isomer, unassigned) [Z16-1], the 50% inhibitory concentration (IC50) worked out at 7.6 nM in experiment [1]; 9.1 nM in experiment [2]; 17.3 nM in experiment [3]; 36.6 nM in experiment [4]; 42.8 nM in experiment [5].

In the case of `O=C(c1ccc(Oc2ccccc2)cc1Cl)c1c[nH]c2ncc3c(c12)N[C@@]1(CCCOC1)C(=O)N3` (single isomer, unassigned) [Z16-2], the half-inhibitory concentration (IC50) in experiment [1] was 5 nM; in experiment [2], 5.6 nM; in experiment [3] it was 10.4 nM; in experiment [4] it was 10.4 nM; in experiment [5], 23 nM.

`O=C(c1ccc(Oc2ccccc2)cc1Cl)c1c[nH]c2ncc3c(c12)N[C@@]1(CC[C@@H](O)C1)C(=O)N3` (single isomer, unassigned) [Z24-a]: the IC50 in experiment [1] turned out to be 5.5 nM; in experiment [2], 8.4 nM; in experiment [3], 46.9 nM; in experiment [4] it was 50 nM; in experiment [5] it was 113 nM.

Regarding `O=C(c1ccc(Oc2ccccc2)cc1Cl)c1c[nH]c2ncc3c(c12)N[C@]1(CC[C@H](O)C1)C(=O)N3` (single isomer, unassigned) [Z24-b], the IC50 was determined as 4.2 nM in experiment [1]; 5.8 nM in experiment [2]; 39.5 nM in experiment [3]; 39 nM in experiment [4]; 80.8 nM in experiment [5].

As to `O=C(c1ccc(Oc2ccccc2)cc1Cl)c1c[nH]c2ncc3c(c12)N[C@]1(CC[C@@H](O)C1)C(=O)N3` (single isomer, unassigned) [Z24-c], the 50% inhibitory concentration (IC50) was 3.2 nM in experiment [1]; 3 nM in experiment [2]; 19.6 nM in experiment [3]; 16.2 nM in experiment [4]; 50.6 nM in experiment [5].

On to `O=C(c1ccc(Oc2ccccc2)cc1Cl)c1c[nH]c2ncc3c(c12)N[C@@]1(CC[C@H](O)C1)C(=O)N3` (single isomer, unassigned) [Z24-d], for which the 50% inhibitory concentration (IC50) in experiment [1] was found to be 3.4 nM; in experiment [2] it was 3.1 nM; in experiment [3], 16.9 nM; in experiment [4], 15.3 nM; in experiment [5], 52 nM.

As for `COC1CCC2(C1)Nc1c(cnc3[nH]cc(C(=O)c4ccc(Oc5ccccc5)cc4Cl)c13)NC2=O` (single isomer, unassigned) [Z25-2, 9′-(2-chloro-4-phenoxybenzoyl)-3-methoxy-4′,7′-dihydrospiro[cyclopentane-1,2′-pyrrolo[3′,2′:5,6]pyrido[3,4-b]pyrazin]-3′(1′H)-one], the IC50 was determined as 14.7 nM in experiment [1]; 8.7 nM in experiment [2]; 15.2 nM in experiment [3]; 32.7 nM in experiment [4]; 80.4 nM in experiment [5].

For `N#C[C@@H]1CC[C@]2(C1)Nc1c(cnc3[nH]cc(C(=O)c4ccc(Oc5ccccc5)cc4Cl)c13)NC2=O` (single isomer, unassigned) [Z26-1], the IC50 in experiment [1] worked out at 15.6 nM; in experiment [2], 15.4 nM; in experiment [3] it was 31.5 nM; in experiment [4], 38.4 nM; in experiment [5] it was 47.7 nM.

For `COCC1(C)Nc2c(cnc3[nH]cc(C(=O)c4ccc(Oc5cc(C)ccn5)cc4Cl)c23)NC1=O` (single isomer, unassigned) [Z64-1, 9-(2-chloro-4-((4-methylpyridin-2-yl)oxy)benzoyl)-2-(methoxymethyl)-2-methyl-1,2,4,7-tetrahydro-3H-pyrrolo[3′,2′:5,6]pyrido[3,4-b]pyrazin-3-one], the IC50 in experiment [1] was found to be 6.3 nM; in experiment [2] it was 10.7 nM; in experiment [3], 58.5 nM; in experiment [4], 198 nM; in experiment [5] (Homo sapiens, TMD8, 72 h) it was 194 nM.

Consider `[2H]C([2H])([2H])OC[C@]1(C)Nc2c(cnc3[nH]cc(C(=O)c4ccc(Oc5ccccc5)cc4Cl)c23)NC1=O` (single isomer, unassigned) [Z66-1], for which the half-inhibitory concentration (IC50) worked out at 6.7 nM in experiment [1]; 3.8 nM in experiment [2]; 29.6 nM in experiment [3]; 38.1 nM in experiment [4]; 94.8 nM in experiment [5] (Homo sapiens, TMD8, 72 h).

On to `CCOC[C@]1(C)Nc2c(cnc3[nH]cc(C(=O)c4ccc(Oc5ccccc5)cc4Cl)c23)NC1=O` (single isomer, unassigned) [Z67-1], for which the IC50 in experiment [1] came to 9.6 nM; in experiment [2], 10.3 nM; in experiment [3], 37.3 nM; in experiment [4] it was 42.6 nM; in experiment [5] (Homo sapiens, TMD8, 72 h) it was 161 nM.

As to `COC[C@@]1(C)Nc2c(cnc3[nH]cc(C(=O)c4ccc(Oc5ccccc5)cc4F)c23)NC1=O` (single isomer, unassigned) [Z71-1], the half-inhibitory concentration (IC50) in experiment [1] stood at 8.5 nM; in experiment [2], 8.3 nM; in experiment [3], 32.3 nM; in experiment [4] it was 40.3 nM; in experiment [5], 180 nM.

For `CC(=O)N1CCC2(C1)Nc1c(cnc3[nH]cc(C(=O)c4ccc(Oc5ccccc5)cc4Cl)c13)NC2=O` (stereo not shown) [Z4], the 50% inhibitory concentration (IC50) came to 17.1 nM in experiment [1], 10.3 nM in experiment [2], 375 nM in experiment [3] and 340 nM in experiment [4].

With `CN1CCC2(C1)Nc1c(cnc3[nH]cc(C(=O)c4ccc(Oc5ccccc5)cc4F)c13)NC2=O` (stereo not shown) [Z5], the half-inhibitory concentration (IC50) in experiment [1] came out at 27.8 nM; in experiment [2], 12 nM; in experiment [3], 35.8 nM; in experiment [4], 36.6 nM.

As to `COCC1(C)Nc2c(cnc3[nH]cc(C(=O)c4ccc(Oc5cc(C)ccn5)cc4Cl)c23)NC1=O` (stereo not shown) [Z64, 9-(2-chloro-4-((4-methylpyridin-2-yl)oxy)benzoyl)-2-(methoxymethyl)-2-methyl-1,2,4,7-tetrahydro-3H-pyrrolo[3′,2′:5,6]pyrido[3,4-b]pyrazin-3-one], the IC50 in experiment [1] was determined as 6.5 nM; in experiment [2], 13.3 nM; in experiment [3], 65.8 nM; in experiment [4], 90 nM.

For `CC1(C)Nc2c(cnc3[nH]cc(C(=O)c4ccccc4Cl)c23)NC1=O` [Z120, 9-(2-chlorobenzoyl)-2,2-dimethyl-1,2,4,7-tetrahydro-3H-pyrrolo[3′,2′:5,6]pyrido[3,4-b]pyrazin-3-one], the 50% inhibitory concentration (IC50) in experiment [1] was found to be 4.3 nM; in experiment [2], 2 nM; in experiment [3] it was 2.5 nM; in experiment [4] it was 1 nM.

For the compound `COC[C@]1(C)Nc2c(cnc3[nH]cc(C(=O)c4ccc(F)c(F)c4Cl)c23)NC1=O` [Z195, (S)-9-(2-chloro-3,4-difluorobenzoyl)-2-(methoxymethyl)-2-methyl-1,2,4,7-tetrahydro-3H-pyrrolo[3′,2′:5,6]pyrido[3,4-b]pyrazin-3-one], the IC50 in experiment [1] was determined as 3.9 nM; in experiment [2], 3.9 nM; in experiment [3], 2.8 nM; in experiment [4] it was 1.4 nM.

Consider `O=C(c1ccccc1Cl)c1c[nH]c2ncc3c(c12)NC1(CCOCC1)C(=O)N3` [Z197, 9′-(2-chlorobenzoyl)-2,3,4′,5,6,7′-hexahydrospiro[pyran-4,2′-pyrrolo[3′,2′:5,6]pyrido[3,4-b]pyrazin]-3′(1′H)-one], for which the IC50 in experiment [1] was 3 nM; in experiment [2], 1.3 nM; in experiment [3], 5.2 nM; in experiment [4] it was 1.6 nM.
